Experimental findings from ChEMBL document CHEMBL1135026, “Synthesis of fluorescent biochemical tools related to the 2-azetidinone class of cholesterol absorption inhibitors” (2002) are described below.

Assay type in all cases: functional
Assay [1] deals with Rattus norvegicus. In words: Percent inhibition of 14C]cholesterol absorption into plasma using cholesterol absorption assay in rats at the dose of 300 ug/Kg.
The test system of assay [2] is Rattus norvegicus. Briefly: Percent inhibition of 14C]cholesterol absorption into plasma using cholesterol absorption assay in rats at the dose of 30 ug/Kg.
For assay [3], the system named is Rattus norvegicus. Briefly: Percent inhibition of 14C]cholesterol absorption into plasma using cholesterol absorption assay in rats at the dose of 100 ug/Kg.
Assay [4] deals with Rattus norvegicus. Briefly: Percent inhibition of 14C]cholesterol absorption into plasma using cholesterol absorption assay in rats at the dose of 56 ug/Kg.
Assay [5] deals with Rattus norvegicus. In words: Percent inhibition of 14C]cholesterol absorption into plasma using cholesterol absorption assay in rats at the dose of 186 ug/Kg.
Assay [6] deals with Rattus norvegicus. In words: Percent inhibition of 14C]cholesterol absorption into plasma using cholesterol absorption assay in rats at the dose of 10 ug/Kg.
The test system of assay [7] is Rattus norvegicus. In words: Percent inhibition of 14C]cholesterol absorption into plasma using cholesterol absorption assay in rats at the dose of 2000 ug/Kg.
Assay [8] has as its system Rattus norvegicus. In words: Percent inhibition of 14C]cholesterol absorption into plasma using cholesterol absorption assay in rats at the dose of 3 ug/Kg.
The species named for assay [9] is Rattus norvegicus. Briefly: Compound was tested for cholesterol absorption inhibition in rats by bolus injection 1 mL) via the intestinal catheter into the small intestine, by cholesterol absorption assay. The following applies: read-out: ID50 (the source's name).

In the assay with Rattus norvegicus [1], `Cc1cc(C)n(B(F)F)c1/C=C1/C=CC(CCC(=O)NCC#Cc2ccc(N3C(=O)[C@H](CC[C@H](O)c4ccc(F)cc4)[C@H]3c3ccc(O[C@@H]4O[C@H](C(=O)O)[C@@H](O)[C@H](O)[C@H]4O)cc3)cc2)=N1` displayed an inhibition in vivo at 0.3 mg/kg of 92%. Moreover, the inhibition in vivo at 0.03 mg/kg with Rattus norvegicus [2] was determined as 58%. This compound had an inhibition in vivo at 0.1 mg/kg with Rattus norvegicus [3] of 80%.

`O=C(CCCCCNC(=O)c1ccc(-c2c3ccc(=O)cc-3oc3cc(O)ccc23)c(C(=O)O)c1)NCC#Cc1ccc(N2C(=O)[C@H](CC[C@H](O)c3ccc(F)cc3)[C@H]2c2ccc(O[C@@H]3O[C@H](C(=O)O)[C@@H](O)[C@H](O)[C@H]3O)cc2)cc1` yielded an inhibition in vivo at 0.056 mg/kg in the assay on Rattus norvegicus [4] of 79%. Also, the inhibition in vivo at 0.186 mg/kg in the assay with Rattus norvegicus [5] is 88%. In addition, at 0.03 mg/kg the inhibition in vivo with Rattus norvegicus [2] was 85%.

In the case of `O=C(O)[C@H]1O[C@@H](Oc2ccc([C@@H]3[C@@H](CC[C@H](O)c4ccc(F)cc4)C(=O)N3c3cccc4nsnc34)cc2)[C@H](O)[C@@H](O)[C@@H]1O`, at 0.01 mg/kg the inhibition in vivo in the assay on Rattus norvegicus [6] was 66%. Also, testing at 0.03 mg/kg in the assay on Rattus norvegicus [2] gave an inhibition in vivo of 83%. For the same compound, testing at 0.1 mg/kg in the assay on Rattus norvegicus [3] gave an inhibition in vivo of 85%.

Turning to `O=C(O)[C@H]1O[C@@H](Oc2ccc([C@@H]3[C@@H](CC[C@H](O)c4ccc(F)cc4)C(=O)N3c3ccc(F)cc3)cc2)[C@H](O)[C@@H](O)[C@@H]1O`, in the assay on Rattus norvegicus [6], testing at 0.01 mg/kg gave an inhibition in vivo of 91%.

Turning to `COc1ccc([C@@H]2[C@@H](CCCc3ccccc3)C(=O)N2c2ccc(OC)cc2)cc1` [SCH-48461], in the assay on Rattus norvegicus [7], the inhibition in vivo at 2 mg/kg was 95%.

`O=C1[C@H](CC[C@H](O)c2ccc(F)cc2)[C@@H](c2ccc(O)cc2)N1c1ccc(F)cc1` [EZETIMIBE] registered an inhibition in vivo at 0.003 mg/kg with Rattus norvegicus [8] of 63%. The inhibition in vivo at 0.01 mg/kg with Rattus norvegicus [6] was found to be 74%. Besides, the ED50 in the assay filed under Rattus norvegicus [9] worked out at 1.6 µg/kg.
